From patent US4668679A, “Aminoethyl-pyridine and pyrazine derivatives” (Riom Laboratories C.E.R.M., priority 1983, dated 1987) come the findings set out here.

The subject of this assay is Bronchospasm. Nature of the assay: antibronchoconstrictory activity, technique of Konzett and Rossler (histamine bronchospasm, i.v.). It counts as in vivo, tricoloured guinea pigs. The conditions noted are these: guinea pig; for Duration: duration of action. As for the experimental part:
The antibronchoconstrictory activity was investigated on tricoloured guinea pigs according to the technique of Konzett and Rossler. The animals are anaesthetised with ethylcarbamate and, after tracheotomy, are artifically respirated at constant volume; whereby the intratracheal pressure is recorded continuously. Histamine (5 μg.kg^-1, i.v.) is administered before and at various time-intervals after treatment with the substance to be studied. The activity of the product administered intravenously is evaluated by comparing the amplitudes of the bronchospasms before and after treatment and calculating the percentage variation and the duration of action.

Where [1] appears, read: Cavia porcellus, iv, dose 5 mg, histamine 5 μg/kg i.v.
Where [2] appears, read: dose 5 mg, histamine 5 μg/kg i.v.
The mark [3] stands for this setting: Cavia porcellus, iv, dose 0.05 mg, histamine 5 μg/kg i.v.
Where [4] appears, read: dose 0.05 mg, histamine 5 μg/kg i.v.
Where [5] appears, read: Cavia porcellus, iv, dose 0.25 mg, histamine 5 μg/kg i.v.
Setting [6] is: dose 0.25 mg, histamine 5 μg/kg i.v.
[7] abbreviates: Cavia porcellus, iv, dose 0.1 mg, histamine 5 μg/kg i.v.
[8] abbreviates: dose 0.1 mg, histamine 5 μg/kg i.v.

Consider `COC(CN1CCCC1)c1ccc(C)nc1` (stereo not drawn) [Compound 1], for which the inhibition in vivo (as a rule, the change of the read-out against control, counted positive when it falls) at 5 mg under setting [1] was 56.5%. Moreover, under setting [2], the Duration is above 60 min.

As to `COC(CN1CCN(c2ccc(F)cc2)CC1)c1ccc(C)nc1` (stereo not drawn) [Compound 2], the inhibition in vivo at 0.05 mg under setting [3] came out at 85%. Also, the Duration under setting [4] is above 120 min. Also, where the note is “histamine bronchospasm”, the “antibronchoconstrictory activity (intensity and duration of action), in words” value (shortened to “antibronchoconstrictory activity”) is reported as “excellent activity”.

Under setting [1], `COC(CN1CCOCC1)c1ccc(C)nc1` (stereo not drawn) [Compound 3] showed an inhibition in vivo at 5 mg of 50%. Also, the Duration under setting [2] was above 15 min.

With `COC(CN1CCN(c2ccccc2)CC1)c1ccc(C)nc1` (stereo not drawn) [Compound 6, 1-[2-Methoxy-2-(6-methyl-3-pyridyl)-ethyl]-4-phenyl-piperazine], the inhibition in vivo at 0.025 mg (Cavia porcellus, iv, dose 0.025 mg, histamine 5 μg/kg i.v.) was 90%. Besides, the 50% effect level (Cavia porcellus, iv, histamine bronchospasm) (ED50) was put at a dose of 1.9 µg/kg. The compound further showed a Duration (dose 0.025 mg, histamine 5 μg/kg i.v.) above 120 min. The “antibronchoconstrictory activity” value (histamine bronchospasm) is on record as “excellent activity”.

`COc1ccccc1N1CCN(CC(OC)c2ccc(C)nc2)CC1` (stereo not drawn) [Compound 7, 1-[2-Methoxy-2-(6-methyl-3-pyridyl)-ethyl]-4-(2-methoxy-phenyl)-piperazine] showed an inhibition in vivo at 0.25 mg under setting [5] of 97%. The compound further returned a Duration under setting [6] above 60 min. The “antibronchoconstrictory activity” value (histamine bronchospasm) was “excellent activity”.

For the compound `CCOc1ccccc1N1CCN(CC(OC)c2ccc(C)nc2)CC1` (stereo not drawn) [Compound 8], under setting [7], the inhibition in vivo at 0.1 mg came out at 95%. This compound also displayed a Duration under setting [8] above 15 min. Where the note is “histamine bronchospasm”, the “antibronchoconstrictory activity” value is reported as “excellent activity”.

In turn, `COC(CN1CCN(c2ccccc2)CC1)c1cnc(C)cn1` (stereo not drawn) [Compound 9] showed an inhibition in vivo at 0.25 mg under setting [5] of 98%. This compound also showed a Duration under setting [6] of 30 min.

With `CCOC(CN1CCN(c2ccccc2)CC1)c1ccc(C)nc1` (stereo not drawn) [Compound 10], the inhibition in vivo at 1 mg (Cavia porcellus, iv, dose 1 mg, histamine 5 μg/kg i.v.) was 100%. The compound also yielded a Duration (dose 1 mg, histamine 5 μg/kg i.v.) above 60 min.

Compound `CCOC(CN1CCN(c2ccccc2OC)CC1)c1ccc(C)nc1` (stereo not drawn) [Compound 11] registered an inhibition in vivo at 0.25 mg under setting [5] of 100%. The Duration under setting [6] was above 60 min.

In turn, `COC(CN1CCN(c2ccc(F)cc2)CC1)c1cnc(C)cn1` (stereo not drawn) [Compound 12] yielded an inhibition in vivo at 0.5 mg (Cavia porcellus, iv, dose 0.5 mg, histamine 5 μg/kg i.v.) of 91%. Further, the Duration (dose 0.5 mg, histamine 5 μg/kg i.v.) is above 60 min.

In turn, `COC(CN1CCN(c2ccccc2)CC1)c1nccnc1C.O=C(O)/C=C/C(=O)O` (stereo not drawn) [Compound 14, 1-[2-Methoxy-2-(3-methyl-2-pyrazinyl)-ethyl]-4-phenyl-piperazine fumarate salt] had an inhibition in vivo at 5 mg under setting [1] of 82%. Besides, the Duration under setting [2] worked out at 45 min.

The compound `COc1ccc(N2CCN(CC(OC)c3ccc(C)nc3)CC2)c(OC)c1` (stereo not drawn) [Compound 15] yielded an inhibition in vivo at 0.05 mg under setting [3] of 80%. The Duration under setting [4] is 60 min. Moreover, the “antibronchoconstrictory activity” value (histamine bronchospasm) is on record as “excellent activity”.

Regarding `COC(CN1CCN(c2ccccc2C)CC1)c1ccc(C)nc1` (stereo not drawn) [Compound 16], the inhibition in vivo at 0.1 mg under setting [7] stood at 79%. Further, under setting [8], the Duration was determined as 45 min. Moreover, the “antibronchoconstrictory activity” value (histamine bronchospasm) is “excellent activity”.
